Assay results published in patent US5994087A, “Mammalian melanocortin receptors and uses” (Oregon Health Sciences University, priority 1995, dated 1999).

Columns and labels:
[1] = target: rat MC3-R (Rattus norvegicus, UniProt P32244); experiment: Intracellular cAMP production in recombinant MC3-R expressing human 293 cells; assay type: cell-based
Protocol: This property of cells expressing melanocortin receptors was used to analyze expression of MC3-R in cells transfected with the expression vectors described herein as follows.
Following hormone treatment, the cells were washed twice with phosphate buffered saline and intracellular cAMP extracted by lysing the cells with 1 ml of 60% ethanol.

[2] = tested on: central nervous system and renal afferent nerve; conditions: Gruber & Callahan 1989; Klein et al. 1985; Lin et al. 1987; cited from earlier work
[3] = tested on: pigmentation; conditions: Ling et al. 1979; Slominski et al. 1992; cited from earlier work

Sequence of rat MC3-R (P32244 whole entry): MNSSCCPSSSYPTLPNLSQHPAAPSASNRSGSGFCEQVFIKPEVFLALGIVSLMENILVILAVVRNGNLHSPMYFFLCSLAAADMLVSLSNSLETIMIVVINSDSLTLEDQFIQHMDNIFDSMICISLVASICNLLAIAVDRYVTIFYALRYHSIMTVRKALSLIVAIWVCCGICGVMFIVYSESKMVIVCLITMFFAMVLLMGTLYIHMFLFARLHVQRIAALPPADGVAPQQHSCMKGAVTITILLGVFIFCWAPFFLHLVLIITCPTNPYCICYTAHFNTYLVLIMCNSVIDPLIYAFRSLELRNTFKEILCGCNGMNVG

In the case of CSCC[C@H](NC(=O)[C@@H](NC(=O)[C@@H](N)Cc1ccc(O)cc1)C(C)C)C(=O)NCC(=O)N[C@@H](Cc1c[nH]cn1)C(=O)N[C@@H](Cc1ccccc1)C(=O)N[C@@H](CCCNC(=N)N)C(=O)N[C@@H](Cc1c[nH]c2ccccc12)C(=O)N[C@@H](CC(=O)O)C(=O)N[C@@H](CCCNC(=N)N)C(=O)N[C@@H](Cc1ccccc1)C(N)=O [γ-MSH, γ-melanocyte stimulating hormone], the “potency rank among ligands (lowest EC50)” value [1] is listed as “most potent ligand and the one having the lowest EC50”, the “pressor, cardioaccelerator and natriuretic actions” value [2] is listed as “potent pressor, cardioaccelerator and natriuretic actions” and the “ability to stimulate pigmentation” value [3] is listed as “little or no ability to stimulate pigmentation”.
